Data reported in patent US20260256790A1, “DEBIO-0123 IN COMBINATION WITH TEMOZOLOMIDE AND RADIOTHERAPY FOR USE IN TREATING GLIOMA” (Debiopharm International S.A., priority 2023, published 2026).
Values joined by “and” are separate entries in the source; they are usually repeats but may differ in a detail not shown here. Equal entries are not always repeated. Where two headings read alike, the source gives them in different places.

Key:
[1] = Drug concentration in monkey brain and plasma after daily oral administration for 91 days; format: in vivo, cynomolgus monkeys; details: 10 mg/kg oral once a day for 91 days; for Kp at 24 h / concentration at 24 h: female, cynomolgus monkey, 10 mg/kg; for Kp at 24 h: brain (left forebrain) / plasma, po; for concentration at 24 h: oral
Method: (§1) Compound of formula (I) was orally given to 3 female cynomolgus monkeys by gavage once a day for 91 days. The volume of administration was 5 mL/kg, and the vehicle was an aqueous solution of 0.5% (w/v) methylcellulose (cps 400) and 1% (w/v) Tween 80. The Compound of formula (I) dose was 10 mg/kg; this dose level was assessed in this study to be the […] no adverse effect level (NOAEL) based on general toxicology evaluation. The animals were necropsied 24 hours after the last dose after an overnight period without food. A sample from brain tissue (left forebrain) was collected from each animal, snap frozen in liquid nitrogen. and stored frozen at <−50° C. Blood samples were taken from the femoral vein into tubes containing K2EDTA, fully inverted approximately 10 times, and placed on crushed wet ice until centrifugation at 2300 g for 10 minutes at approximately 4° C. The resultant plasma was separated, transferred into polypropylene tubes, and frozen at <−50° C. Tissue and plasma samples were transported frozen on dry ice to the respective sites of analysis.
The monkey plasma samples were analyzed for their contents in Compound of formula (I) and N^32-desmethyl-Compound of formula (I) as follows. The plasma samples were fortified in human K2-EDTA plasma (1:9 monkey:human volume ratio) prior to extraction. All solution preparations and dilutions were conducted under sodium vapor light and in “low-binding” quality polypropylene tubes and deep-well plates. The analytes and internal standards (^13CD6-Compound of formula (I) and D7-N^32-desmethyl-Compound of formula (I)) were extracted by protein precipitation with 5M aqueous urea (40 μL for 50 μL plasma), and then analyzed by LC-MS/MS. Chromatographic separation was achieved on an Synergi Polar-RP, 80A, 4 μm 75×2.00 mm column (Phenomenex) with gradient elution using a mixture of 0.1% formic acid in water as eluent A and 0.1% formic acid in acetonitrile as eluent B (5% B from 0 to 0.50 min, 42% B at 4.5 min, 95% B from 4.60 min to 5.50 min, 5% B at 5.60 min, 100% B at 5.70 min, 5% B at 6.40 min, 100% B at 6.50 min, 5% B at 7.00 min; 800 μl/min, 70° C.). Detection was accomplished with a AB Sciex 6500+ mass spectrometer utilizing electrospray MS/MS in positive ion multiple reaction monitoring mode (MRM). The lower limits of quantification for Compound of formula (I) and N^32-desmethyl-Compound of formula (I) were 5.00 ng/mL and 2.50 ng/mL, respectively.
The monkey brain tissue samples were analyzed for their contents in Compound of formula (I) and N^32-desmethyl-Compound of formula (I) as follows. Tissue samples were homogenized in human plasma (1 mg tissue for 10 μL plasma) at +4° C. using a Precelly Evolution system. The analytes (Compound of formula (I) and N^32-desmethyl-Compound of formula (I)) were extracted by protein precipitation with methanol/acetonitrile (9:1, v:v) containing the internal standards (^13CD6-Compound of formula (I) and D7-N^32-desmethyl-Compound of formula (I)) and then analyzed by UHPLC-MS/MS. Chromatographic separation was achieved on a HSS T3 1.8 μm, 2.1×100 mme column (Waters) with gradient elution using a mixture of 0.1% formic acid in water as eluent A, and 0.1% formic acid in acetonitrile as eluent B (20% B from 0 to 0.50 min, 90% B from 1.80 min to 2.30 min, 20% B at 2.60 min; 0.6 mL/min, room temperature). Detection was accomplished with Xevo TQ-S mass spectrometer (Waters) utilizing electrospray MS/MS in positive ion multiple reaction monitoring mode (MRM). The lower limits of quantification for Compound of formula (I) and N^32-desmethyl-Compound of formula (I) were 55.00 ng/g tissue and 22.00 ng/g tissue, respectively.

[2] = CSF and matching plasma concentrations in glioma patients (clinical trial Arms A and B); format: in vivo, human
Method: In the clinical trial described in Example 9, cerebrospinal fluid (CSF) stabilized with formic acid 0.5% and matching plasma samples collected on K2 EDTA were drawn from 3 patients of Arm A on day 11 of cycle 1 (i.e. 2 patients at 150 mg and 1 patient at 200 mg of Study drug) and 1 patient of Arm B on Week 3 day 1 (i.e. Day 15 after daily doses of Study drug at 90 mg).
Study drug (parent, active moiety) and its active metabolite N^32-desmethyl-Study drug were measured using LC-MS/MS methods. Results were provided in ng per mL of plasma or CSF, and then converted to nmol/L using the molecular weights of the Study drug (511.45 g/mol) and N^32-desmethyl-Study drug (497.42 g/mol).
Thus, the unbound (or free fraction) of the Study Drug and the N^32-desmethyl-Study drug are calculated.
In CSF, the total protein concentration varies between 0.2% and 0.5% of the total protein concentration of blood (H. Reiber, Clinica Chimica Acta, 2001; Schilde L M et al., PLoS ONE, 2018), therefore the concentration measured in CSF essentially corresponds to the free fraction of the compounds.
For each of the 4 patients, the ratio CSF/plasma of a given compound (Study drug parent or metabolite) was calculated using the CSF concentration of said compound (in nmol/L) and the unbound or free fraction of said compound in plasma (in nmol/L).

in vivo = assay: in vivo; set-up: species or system cynomolgus monkeys; details: female, cynomolgus monkey, po
Method: as §1

Which “Brain:plasma concentration ratio, at 24 h post last dose” value ([1]; individual animals) does the source give for Cc1cc(Nc2ncc3c(n2)N(C)CN(c2c(Cl)cccc2Cl)C3=O)ccc1C1CCN(C)CC1 [Compound of formula (I)] here?
The value was 4.18 and 4.57.

And the “Plasma concentration at 24 h post last dose” value ([1]; individual animals)?
Its value is 929 ng/mL and 632 ng/mL.

And the “Brain concentration at 24 h post last dose” value ([1]; left forebrain, individual animals)?
The value was 3885 ng/g tissue and 2886 ng/g tissue.

What about the Kp at 24 h ([1]; individual animals, read-out: Brain:plasma concentration ratio, at 24 h post last dose) of the same molecule?
Its Kp at 24 h is 4.2.

What about the Kp at 24 h ([1]; read-out: Mean brain:plasma ratio (±SD), at 24 h post last dose (n = 3)) of the same molecule?
The Kp at 24 h was 4.32 ± 0.22.

And the concentration at 24 h ([1]; brain (left forebrain), left forebrain, individual animals, read-out: Brain concentration at 24 h post last dose)?
The concentration at 24 h was 4790 ng/g.

What about the concentration at 24 h ([1]; plasma, individual animals, read-out: Plasma concentration at 24 h post last dose) of the same molecule?
Its concentration at 24 h is 1140 ng/mL.

What about the “CSF to “unbound plasma” ratio” value ([2]; Arm A, 150 mg, day 11 of cycle 1, listed as Study drug) of the same molecule?
Its value is 0.33.

What about the Kp at 15 day ([2]; human, CSF / unbound plasma, 90 mg, Arm B, 90 mg daily, Week 3 day 1 (Day 15), read-out: CSF to “unbound plasma” ratio) of the same molecule?
The Kp at 15 day was 0.42.

What about the Kp at 11 day ([2]; human, CSF / unbound plasma, 150 mg, Arm A, 150 mg, day 11 of cycle 1, read-out: CSF to “unbound plasma” ratio) of the same molecule?
The Kp at 11 day was 0.35.

And the Kp at 11 day ([2]; human, CSF / unbound plasma, 200 mg, Arm A, 200 mg, day 11 of cycle 1, read-out: CSF to “unbound plasma” ratio)?
Its Kp at 11 day is 0.38.

And the concentration at 15 day ([2]; human, CSF, 90 mg, Arm B, 90 mg daily, Week 3 day 1 (Day 15), read-out: CSF concentration)?
Its concentration at 15 day is 21.3 nM.

What about the concentration at 15 day ([2]; human, CSF, 90 mg, Arm B, 90 mg daily, Week 3 day 1 (Day 15), read-out: Raw data concentration in CSF) of the same molecule?
Its concentration at 15 day is 10.9 ng/mL.

And the concentration at 11 day ([2]; human, CSF, 200 mg, Arm A, 200 mg, day 11 of cycle 1, read-out: CSF concentration)?
Its concentration at 11 day is 19.8 nM.

And the concentration at 11 day ([2]; human, CSF, 200 mg, Arm A, 200 mg, day 11 of cycle 1, read-out: Raw data concentration in CSF)?
The concentration at 11 day was 10.1 ng/mL.

And the Kp ([2]; human, CSF/unbound plasma, 4 patients, Arms A and B, read-out: CSF/plasma ratio)?
The Kp was 0.33 to 0.42.

What about the concentration at 15 day ([2]; human, plasma (unbound), 90 mg, Arm B, 90 mg daily, Week 3 day 1 (Day 15), read-out: Unbound plasma concentration) of the same molecule?
Its concentration at 15 day is 50.3 nM.

And the concentration at 11 day ([2]; human, plasma (unbound), 200 mg, Arm A, 200 mg, day 11 of cycle 1, read-out: Unbound plasma concentration)?
Its concentration at 11 day is 52.4 nM.

What about the concentration at 15 day ([2]; human, plasma, 90 mg, Arm B, 90 mg daily, Week 3 day 1 (Day 15), read-out: Raw data concentration in plasma) of the same molecule?
The concentration at 15 day was 309 ng/mL.

What about the concentration at 11 day ([2]; human, plasma, 200 mg, Arm A, 200 mg, day 11 of cycle 1, read-out: Raw data concentration in plasma) of the same molecule?
Its concentration at 11 day is 322 ng/mL.

And the NOAEL at 91 days (in vivo)?
Its NOAEL at 91 days is 10 mg/kg.
